Laboratory results: patent publication US8343957B2, “Therapeutic pyrazoloquinoline urea derivatives” (Dart Neuroscience (Cayman) Ltd., priority 2007, dated 2013)
pIC50: −log10 of the molar value.

Target: GABAA central benzodiazepine receptor
Test: Benzodiazepine Binding Assay
Details: read-out: BZ binding Assay IC50; 1 nM (3H)-flunitrazepam, rat whole brain (except cerebellum) membranes, 60 minutes at 25° C.

Row | SMILES | pIC50
1 | CN1CCN(C(=O)n2cc3c(=O)n(-c4ccsc4)nc-3c3cc(F)c(F)cc32)CC1 [Compd 49, 5-(4-Methylpiperazine-1-carbonyl)-2-(thiophen-3-yl)-7,8-difluoro-2,5-dihydro-pyrazolo[4,3-c]quinolin-3-one] | > 6.00
2 | O=C(N1CCC(O)CC1)n1cc2c(=O)n(-c3ccsc3)nc-2c2cc(F)c(F)cc21 [Compd 50, 5-(4-Hydroxypiperidine-1-carbonyl)-2-(thiophen-3-yl)-7,8-difluoro-2,5-dihydro-pyrazolo[4,3-c]quinolin-3-one] | > 6.00
3 | O=C(N1CCC(O)CC1)n1cc2c(=O)n(-c3ccccc3)nc-2c2cc(F)c(F)cc21 [Compd 51, 5-(4-Hydroxypiperidine-1-carbonyl)-2-phenyl-7,8-difluoro-2,5-dihydro-pyrazolo[4,3-c]quinolin-3-one] | < 6.00
4 | CC(C)N1CCN(C(=O)n2cc3c(=O)n(-c4ccccn4)nc-3c3cc(F)c(F)cc32)CC1 [Compd 53, 5-(4-Isopropylpiperazine-1-carbonyl)-7,8-difluoro-2-(2′-pyridyl)-2,5-dihydro-pyrazolo-[4,3-c]quinolin-3-one] | < 6.00

The remaining lines, values ahead:

Row | pIC50 | SMILES
5 | > 6.00 | Cc1c2c(=O)n(-c3ccccc3)nc-2c2ccccc2n1C(=O)N1CCN(C)CC1 [Compd 44, 4-Methyl-5-(4-methylpiperazine-1-carbonyl)-2-phenyl-2,5-dihydro-pyrazolo[4,3-c]quinolin-3-one]
6 | > 6.00 | CN1CCN(C(=O)n2cc3c(=O)n(-c4ccccc4)nc-3c3cc(C(F)(F)F)ccc32)CC1 [Compd 45, 5-(4-Methylpiperazine-1-carbonyl)-2-phenyl-8-trifluoromethyl-2,5-dihydro-pyrazolo[4,3-c]quinolin-3-one]
7 | > 9.00 | CC(C)N1CCN(C(=O)n2cc3c(=O)n(-c4ccccc4)nc-3c3cc(C(F)(F)F)ccc32)CC1 [Compd 46, 5-(4-Isopropyl-piperazine-1-carbonyl)-2-phenyl-8-trifluoromethyl-2,5-dihydro-pyrazolo[4,3-c]quinolin-3-one]
8 | < 6.00 | Cc1c2c(=O)n(-c3ccccc3)nc-2c2cc(F)c(F)cc2n1C(=O)N1CCN(C)CC1 [Compd 47, 5-(4-Methylpiperazine-1-carbonyl)-7,8-difluoro-4-methyl-2-phenyl-2,5-dihydro-pyrazolo-(4,3-c)quinolin-3-one]
9 | > 6.00 | CN1CCCN(C(=O)n2cc3c(=O)n(-c4ccccc4)nc-3c3cc(F)c(F)cc32)CC1 [Compd 52, 5-(4-Methylperhydro[1,4]-diazepine-1-carbonyl)-7,8-difluoro-2-phenyl-2,5-dihydro-pyrazolo[4,3-c]quinolin-3-one]
